The nature of assay [1]: Continuous on-line measurement of free calcium concentrations in the extra-corporeal blood circulation. In kind it is in vivo, young rabbits. The note with it: for calcaemic response: rat CGRP i.v. The protocol:
• The general scheme for this test is represented in figure 1 attached: • A flow-through electrode system with two Ca2+^-selective liquid membrane electrodes is inserted in the arterio-venous extracor- poreal blood circulatory system of the test animal this being established by means of indwelling catheters connecting the femoral artery with femoral vein.
The blood is pumped from the artery to the vein at a flow rate of 18 ml/h through the system containing Ca2+^-selective electrodes. A second peristaltic pump aspirates the reference solution of electrolytes, which is transported at a flow rate of 0.9 ml/h, passing the compartment of the reference electrode and mixed with the circulating blood at the site of the common electrode. The mixed fluids are then returned into the ciculatory system of the animal.
The Ca2+^-selective electrode allows the potentiometric measurement of the ionized calcium quantitatively. The potential difference between the reference electrode and the Ca2+^-selective electrode is measured differentially relative to the common electrode. The analogue signal of the difference amplifier is processed by a digital voltmeter. Results are obtained in mV and are continously recorded as a function of time. The voltage difference is […].
Following administration of CGRPs i.v. to the test animal, a potent influence on Ca2+ concentration over extended periods of time and up to at least 5 hours is observed at dosages of from about 0.1 to about 25 µg/kg. More importantly results observed indicate that CGRPs exert both a hypo- and hyper-calcaemic effect which is both dose- and time-dependent. […] Specific results obtained following Ix administration of rat CGRP at varying dosages and illustrating activity profile are shown in the accompanying Figs. 2 through 5. • In all cases administration of test substance occurs at time • Fig.2 .: This is a plot for observed change in calcium level [Δ% calcaemia] with time, following i.v. administration of rat CGRP at dosages of from 0.156 µg/kg to 5.0 µg/kg.

A short description of assay [2]: Clinical trial A: human CGRP in active Paget's disease, serum parameters prior and post administration. The assay is classed as in vivo, volunteer subjects (male and female). How it is done:
Human CGRP is employed as trial substance and is tested by administration in accordance with the following regimens.
The following parameters are measured prior and post-administration: circulating calcium serum levels: alkaline phosphatase: hydroxyproline: bone specific protein levels.

A short description of assay [3]: Clinical trial B: human CGRP s.c. accompanied by salmon or human calcitonin. In kind it is in vivo, volunteer subjects (male and female). Conditions: human CGRP s.c. 10 to 200 µg accompanied by salmon or human calcitonin 5 to 100 I.U. (or M.R.C) s.c. or i.m. The text has this:
The methodology of clinical trial A is repeated, with administration of human CGRP in accordance with regimen 1.3. In this trial however administration is accompanied by administration of salmon or human calcitonin at dosages of from 5 to 100 I.U. (or M.R.C), [e.g. at dosages of 5, 10, 25, 50 or 100 I.U. (or M.R.C.)] administered by injection either s.c. or i.m.

For `CC(C)C[C@H](NC(=O)CNC(=O)[C@H](C)NC(=O)[C@H](CC(C)C)NC(=O)[C@H](CCCNC(=N)N)NC(=O)[C@H](Cc1c[nH]cn1)NC(=O)[C@@H](NC(=O)[C@@H](NC(=O)[C@@H]1CSSC[C@H](NC(=O)[C@@H](N)CO)C(=O)N[C@@H](CC(N)=O)C(=O)N[C@@H]([C@@H](C)O)C(=O)N[C@@H](C)C(=O)N[C@@H]([C@@H](C)O)C(=O)N1)C(C)C)[C@@H](C)O)C(=O)N[C@@H](CC(C)C)C(=O)N[C@@H](CO)C(=O)N[C@@H](CCCNC(=N)N)C(=O)N[C@@H](CO)C(=O)NCC(=O)NCC(=O)N[C@H](C(=O)N[C@H](C(=O)N[C@@H](CCCCN)C(=O)N[C@@H](CC(=O)O)C(=O)N[C@@H](CC(N)=O)C(=O)N[C@@H](Cc1ccccc1)C(=O)N[C@H](C(=O)N1CCC[C@H]1C(=O)N[C@H](C(=O)N[C@@H](CC(N)=O)C(=O)N[C@H](C(=O)NCC(=O)N[C@@H](CO)C(=O)N[C@@H](CCC(=O)O)C(=O)N[C@@H](C)C(=O)N[C@@H](Cc1ccccc1)C(N)=O)C(C)C)[C@@H](C)O)C(C)C)C(C)C)C(C)C` [rat CGRP], the “AUCS (areas under curve)” value in assay [1] (Fig. 2, i.v., 0.156 µg/kg to 5.0 µg/kg, calcium level versus time) is on record as “statistically linear”. In addition, in assay [1] (Fig. 2, i.v., dosages of from 0.156 µg/kg to 5.0 µg/kg), the “observed change in calcium level [Δ% calcaemia]” value is reported as “decrease (hypocalcaemia)”. Further, the “observed change in calcium level after the initial hypocalcaemic response” value in assay [1] (Fig. 5, 10 pg/kg i.v.) is listed as “reverse hypercalcaemic response which continues very strongly”. Further, the hypocalcaemic response entry in assay [1] (Fig. 5, 10 pg/kg i.v., compared with untreated control) is on record as “though strongly marked, is transitory only”. Also, the “duration of hypercalcaemic response following initial administration” value in assay [1] (Fig. 5, 10 pg/kg i.v., printed 'up to at least 5 hours') is recorded as “at least 5 hours”. Also, in assay [1] (Figs 3 to 4, i.v., 2.5 and 5.0 µg/kg, groups of four test animals, compared with untreated controls), the “observed change in calcium level” value was “hypocalcaemia is again observed”. The calcaemic response result in assay [1] is “primarily hypo- calcaemic response”; in assay [1] (dosages in excess of 5 µg/kg) it was “primarily hyper-calcaemic response preceeded by a transient hypo-calcaemic response at the lower end of the dosage range”.
Take `CC(C)C[C@H](NC(=O)CNC(=O)[C@H](C)NC(=O)[C@H](CC(C)C)NC(=O)[C@H](CCCNC(=N)N)NC(=O)[C@H](Cc1c[nH]cn1)NC(=O)[C@@H](NC(=O)[C@@H](NC(=O)[C@@H]1CSSC[C@H](NC(=O)[C@H](C)N)C(=O)N[C@@H](CC(=O)O)C(=O)N[C@@H]([C@@H](C)O)C(=O)N[C@@H](C)C(=O)N[C@@H]([C@@H](C)O)C(=O)N1)C(C)C)[C@@H](C)O)C(=O)N[C@@H](CC(C)C)C(=O)N[C@@H](CO)C(=O)N[C@@H](CCCNC(=N)N)C(=O)N[C@@H](CO)C(=O)NCC(=O)NCC(=O)N[C@H](C(=O)N[C@H](C(=O)N[C@@H](CCCCN)C(=O)N[C@@H](CC(N)=O)C(=O)N[C@@H](CC(N)=O)C(=O)N[C@@H](Cc1ccccc1)C(=O)N[C@H](C(=O)N1CCC[C@H]1C(=O)N[C@H](C(=O)N[C@@H](CC(N)=O)C(=O)N[C@H](C(=O)NCC(=O)N[C@@H](CO)C(=O)N[C@@H](CCCCN)C(=O)N[C@@H](C)C(=O)N[C@@H](Cc1ccccc1)C(N)=O)C(C)C)[C@@H](C)O)C(C)C)C(C)C)C(C)C` [human CGRP]: the “observed change in calcium level, course of response” value in assay [1] (Fig. 6, i.v., 2.5 µg/kg, groups of 6 animals) is on record as “parallels that recorded for rat CGRP in Fig. 5”. Further, in assay [2] (i.v. 0.1 to 20 µg, i.v. infusion 10 to 100 µg, s.c. 10 to 200 µg, intranasal 10 to 500 µg, or s.c. daily for 5 to 7 days), the “circulating serum calcium levels” value is “significant reduction”. Besides, in assay [2] (same regimens), the alkaline phosphatase levels entry is given as “concomitant reduction” and the hydroxyproline levels entry is listed as “concomitant reduction”. In addition, in assay [2] (same regimens, in particular proteins reflecting bone metabolic turn over), the bone specific proteins entry is listed as “marked reduction”. The “influence on measured serum parameters” value in assay [3] is reported as “observed in this trial as in trial A”. In addition, the “reduction of circulating serum calcium levels” value in assay [3] (compared with salmon calcitonin alone) was “superior to that observed on administration of salmon calcitonin alone”.

Source of the values: patent publication EP0156772A2, “Novel pharmaceutical use for CGRPs” (SANDOZ AG, priority 1984, dated 1985).
